Data published in publication PMC10046020, “In Silico Screening and Optimization of Cell-Penetrating Peptides Using Deep Learning Methods” (Biomolecules, 2023).
Peptide text beside a SMILES is read from it. * marks the point of attachment. FITC = O=C1OC2(c3ccc(O)cc3Oc3cc(O)ccc32)c2ccc(NC(=S)*)cc21; Ahx = NCCCCCC(=O)O

test system: MCF-7 cells; settings: not given

Row | Molecule | cell permeability compared to the WT peptide | Permeability
1 | CSCC[C@H](NC(=O)CCCCCNC(=S)Nc1ccc2c(c1)C(=O)OC21c2ccc(O)cc2Oc2cc(O)ccc21)C(=O)N[C@@H](CC(C)C)C(=O)N1CCC[C@H]1C(=O)NCC(=O)N[C@@H](CC(C)C)C(=O)N[C@@H](C)C(=O)N[C@@H](CC(C)C)C(=O)N[C@@H](CC(C)C)C(=O)N[C@@H](CCCCN)C(=O)N[C@@H](CC(C)C)C(=O)N[C@@H](C)C(=O)N[C@@H](C)C(=O)N[C@@H](Cc1c[nH]c2ccccc12)C(=O)N[C@H](C(=O)N[C@@H](C)C(=O)N[C@@H](CCCNC(=N)N)C(=O)N[C@@H](C)C(N)=O)[C@@H](C)O [Peptide 2] ({FITC-Ahx}-MLPGLALLKLAAWTARA-NH2) | lower cell permeability than the WT CPP | –
2 | CSCC[C@H](NC(=O)CCCCCNC(=S)Nc1ccc2c(c1)C(=O)OC21c2ccc(O)cc2Oc2cc(O)ccc21)C(=O)N[C@@H](CCCCN)C(=O)N1CCC[C@H]1C(=O)NCC(=O)N[C@@H](CC(C)C)C(=O)N[C@@H](C)C(=O)N[C@@H](CC(C)C)C(=O)N[C@@H](CC(C)C)C(=O)N[C@@H](CC(C)C)C(=O)N[C@@H](CC(C)C)C(=O)N[C@@H](C)C(=O)N[C@@H](C)C(=O)N[C@@H](CCCCN)C(=O)N[C@@H](CCCCN)C(=O)N[C@@H](C)C(=O)N[C@@H](CCCNC(=N)N)C(=O)N[C@@H](C)C(N)=O [Peptide 10] ({FITC-Ahx}-MKPGLALLLLAAKKARA-NH2) | lower cell permeability than the WT CPP | –
3 | CSCC[C@H](NC(=O)CCCCCNC(=S)Nc1ccc2c(c1)C(=O)OC21c2ccc(O)cc2Oc2cc(O)ccc21)C(=O)N[C@@H](CC(C)C)C(=O)N1CCC[C@H]1C(=O)NCC(=O)N[C@@H](CC(C)C)C(=O)N[C@@H](C)C(=O)N[C@@H](CC(C)C)C(=O)N[C@@H](CC(C)C)C(=O)N[C@@H](CC(C)C)C(=O)N[C@@H](CC(C)C)C(=O)N[C@@H](C)C(=O)N[C@@H](C)C(=O)N[C@@H](Cc1c[nH]c2ccccc12)C(=O)N[C@H](C(=O)N[C@@H](C)C(=O)N[C@@H](CCCNC(=N)N)C(=O)N[C@@H](C)C(N)=O)[C@@H](C)O [Peptide 1] ({FITC-Ahx}-MLPGLALLLLAAWTARA-NH2) | – | 10.40%

test system: not given; settings: Spreadsheet S1: 150 CPP and 150 non-CPP peptides collected from CellPPD, MLCPP, CPPsite 2.0, Lifetein and other publications; cited from earlier work
Source text: Supplement biomolecules-13-00522-s001.zip/biomolecules-2162660_Supplementary Spreadsheets S1 Test Set.csv, table | column: class || Supplement biomolecules-13-00522-s001.zip/biomolecules-2162660_Supplementary Spreadsheets S2 Train Set.csv, table | column: class

Row | Molecule | class (CPP / Non-CPP), Test Set
4 | HSDGIFTDSYSRYRKQMAVKKYLAAVLGKRYKQRVKNK | CPP
5 | FITKALGISYGRKWRRQC | Non-CPP
6 | GLRKRLRKFRNKIKEKGLRKRLRKFRNKIKEK | CPP
7 | YMVGLCDYHILYSGWGQMDWHPEPHFYAWMYR | Non-CPP
8 | GRCTKSIPPICFPA | CPP
9 | APKRKSGVSK | CPP
10 | CGGGRRRRRRRRRLLLL | CPP
11 | RLRLRLRLRLRLRLRLKLLKLLKLLKLLKKKKKKKGYK | CPP
12 | KLAKLAKKLAKLAKGGRRRRRRR | CPP
13 | IAARIKLRSRQHIKLRHL | Non-CPP
14 | DKLGVWFIWANNASVFHAYHLKC | Non-CPP
15 | QKVAFCDCCYDDIYTVEFKGCIFRPK | Non-CPP
16 | WEAVVAYGRKKRRQRRR | CPP
17 | KETWWETWWTEWSQPKKRKV | CPP
18 | TERQIKIWFQNRRMK | Non-CPP
19 | TAQVFFNVYKKAKPN | Non-CPP
20 | GGTSSSDAQQSLQSFWPRVM | Non-CPP
21 | PVVHLTLRQEGDDFSR | Non-CPP
22 | QSGAKPGHCEWQSTHLKNCEKVNDIRQPPHHQRS | Non-CPP
23 | MNASQVAGEEAPQSGHSVKVVLVGDGGCGKTSLMMVF | Non-CPP
24 | PVVHLTLRQAGDDFSR | Non-CPP
25 | HADGLFTSGYSKLLGQLSARRYLESLI | Non-CPP

Row | Molecule | class (CPP / Non-CPP), Test Set
26 | FFLIPKGRRRRRRRRR | CPP
27 | AITFYPFAPNQITCIHE | Non-CPP
28 | EMCILIDENDNKIGADTKKNCHLNENIDKGLLHRA | Non-CPP
29 | WELVVLGYGRKKRRQRRR | CPP
30 | AHALCLTERQIKSNRRMKWKKEN | Non-CPP
31 | SHMMGEFWGDEDMCYRHQRSYET | Non-CPP
32 | IDLNITMLEDHEFVP | Non-CPP
33 | LALALALALALALAKLAKLAKLAKLAKIKKIKKKIK | CPP
34 | FLPLFLPKIICVITKKC | Non-CPP
35 | ACSGRGSGCGSGRGSCG | CPP
36 | PPPPPPPPPPPLRR | CPP
37 | LILIGRRRRRRRRGC | CPP
38 | AHALCLTEFQIKSNRRMKWKKEN | Non-CPP
39 | KKLSECLKRIGDELDS | Non-CPP
40 | TPTSPSSPGLSPVPPPDKVDGFSRRSLRRARPRR | Non-CPP
41 | LLATTALLKTTALLKTTA | Non-CPP
42 | ACRGRGRGCGSGSGSCG | CPP
43 | GWTNLSAQYLLGPPPGFSPFR | Non-CPP
44 | PKKKRKVRRRRRRRPQMQQNVFQYPGAGMVPQGEANF | CPP
45 | QWGYGGMPYGGYGGMGGYGMGGYGMGY | Non-CPP
46 | RQIKIWFQNRRMKWKKC | CPP
47 | DAATARGRGRSAASRPTERPRAPARSASRPRRPVD | CPP

Row | Molecule | class (CPP / Non-CPP), Test Set
48 | ARFSNPGVWSKVAADIFNMALDTALA | Non-CPP
49 | HDEFERHAEGTFTSDVFSYLEGQAAKEFIAWLVKGR | Non-CPP
50 | QQPFVQQQQPFVQQ | Non-CPP
51 | KDCERRFSRSDQLKRHQRRHTGVKPFQK | CPP
52 | GNGEQREMAVSRLRDCLDRQA | CPP
53 | FLPVLAGIAAKVVPALFCKITKKC | Non-CPP
54 | KWRRKLKKLRPKKKRKV | CPP
55 | NSDMAHERKFMWQYNR | Non-CPP
56 | GRKKHRQPPQC | Non-CPP
57 | FLGALFKVASKVLPSVFCAITKKC | Non-CPP
58 | GHHSLKITDDPFDVPFPINDDHDS | Non-CPP
59 | LLGDFFRKSKEKIGKEFKRIVQRIKDFLRNLVPRTES | CPP
60 | YTPNDITLNNSVALDPIDISIELNKAKSDLEESKE | Non-CPP
61 | TAAGDARANAVAKAGLHDLNIETDTERNH | Non-CPP
62 | NAATATRGRSAASRPTQRPRAPARSASRPRRPVQ | CPP
63 | ARRRRCSDRFRNCPADEALCGRRRR | CPP
64 | HAQKQLSKTSWDFIEGEADDGITYSENIAAFKRIRLR | Non-CPP
65 | RGGRLCYCRRRFCVCVGR | CPP
66 | GWTLHSAGYLLGPHAI | Non-CPP
67 | TFFYGGSRGKRNNFKTEEY | CPP

same assay, conditions: Spreadsheet S2: peptides collected from CellPPD, MLCPP, CPPsite 2.0, Lifetein and other publications; cited from earlier work

Row | Molecule | class (CPP / Non-CPP), Train Set
68 | RRRRRRRGGIYLATALAKWALKQGF | CPP

same assay, conditions: cited from earlier work

Row | Molecule | class (CPP / Non-CPP), Test Set
69 | QGARNYKCCFAWC | Non-CPP
70 | VQQQQPLGQQQP | Non-CPP
71 | VATIKSVSFYTRK | Non-CPP
72 | MIEMAM | Non-CPP
73 | LRKLRKRLLR | CPP
74 | TWLKYH | CPP
75 | RRRRRRRHHH | CPP
76 | HATKSQNINF | CPP
77 | CDAGRKQKC | CPP
78 | CRGDKGDPC | CPP
79 | NTCTWLKYHS | CPP
80 | NYQRRCKNQN | CPP
81 | SYNTF | Non-CPP
82 | RRRRRRWWW | CPP
83 | QEHDYGNLDLCN | Non-CPP
84 | HGVSGHGQHGVHG | Non-CPP
85 | QNLGNDWAVGHLM | Non-CPP
86 | WRWRWRWRW | CPP
87 | CSKSSDYQC | CPP
88 | QIFWDSRHPSQH | Non-CPP
89 | RRRRRRRRGC | CPP
90 | SNGHACRPW | Non-CPP
91 | ENGPDQWSKLYP | Non-CPP
